Experimental data from patent publication US9157074B2, “Beta-amylase, gene coding therefor and manufacturing method thereof” (Amano Enzyme Inc., priority 2008, dated 2015).
Entries after “also recorded” stand apart in the source; their conditions may differ.

B1: β-amylase: purified β-amylase from Bacillus flexus APC9451, amino acid sequence SEQ ID NO: 7; final HiLoad 16/60 Superdex200 stage (protein, listed as Bacillus flexus)
chain: MYKPIKKFASLIVLLSFVAAFILGPTNSQAAVNGQSFNSNYKTYLMAPLKKVTEFTTWEAFENDLRKAKQNGFYAVTVDFWWGDMEKNGDQQFDFSYAQRFAQAARNAGIKMVPIISTHQCGGNVGDDCNTPLPSWIWNTKTDDSLYFKSETGTVNKETVNPLATDVITKQYGELYTAFAQALAPYKDVIPKVYLSGGPAGELRYPSYTAADGTGYPSRGKFQAYTDFAKSKFQMWAVNKYGSLAGVNQAWGLSLTSTSQILPPSDGNQFLKDGYNTNYGKDFLEWYQGVLQDHAKRIGALAHQAFDPVFNVPVGAKIAGIHWQYNNPTMPHAAEKPAGYNNYSTLLDSFKTAKLDLTFTCLEMVDSGTYPEYSMPKTLVKEVASLANAKGIVLNGENALSIGSEEQYKRAAEMTFNYNFAGFTLLRFYDVINNSTRMSQFNQHLNIKPVAQTMVVKNAPTSSGESVYIVGDRPELGQWDTIAYPIKLSYNSTYGDWRGTVNFPADRSVQFKAIIKRSDGSLKSWQPTQQYWNVPGTPTTYTNNW

Experiments:
β-amylase [1] = test: Effect of metal ion and inhibitor on β-amylase activity; type: biochemical, Bacillus flexus; settings: 30° C., 30 minutes; for Relative activity: 1 mM metal ion or inhibitor, pH 5.0, not added = 100%; for effect on activity: 1 mM
Procedure: (§1) The activity of β-amylase was measured as follows. To 0.5 ml of 0.1M phosphate-HCl buffer solution (pH 5.0) containing 1% soluble starch and 10 mM calcium acetate, 0.5 ml of enzyme solution was added. The mixture was incubated at 37° C. for 30 minutes. Then, 2.5 ml of DNS solution (0.2% DNS, 80 mM NaOH, 0.2 M potassium sodium tartrate tetrahydrate) was added to the mixture so as to stop the reaction. After the reaction was stopped, the reaction mixture was boiled for five minutes, the absorbance was measured at the wavelength of 530 nm. The enzyme amount when the absorbance measured at the wavelength of 530 nm is 1 is defined as one unit.
To β-amylase in 0.1 M acetic acid-hydrochloric acid buffer solution (pH 5.0) containing 10 mM calcium acetate, 1 mM of various metal ions or inhibitor were added, respectively, treated at 30° C. for 30 minutes, and then the activity was measured by the above-mentioned β-amylase activity. The values were shown as the relative activity when the metal ion and inhibitor were not added is defined as 100%. The activity was inhibited by Cu ion, iodine acetic acid, PCMB, and SDS.

β-amylase [2] = test: Substrate specificity of β-amylase; type: biochemical, Bacillus flexus; settings: for Relative activity (%): activity with respect to soluble starch = 100%, oligosaccharides 0.5%, 0.1 u/ml enzyme, 37° C., 30 minutes, maltose by HPLC; for substrate specificity (words): relative to soluble starch = 100%
Procedure: as §1
The β-amylase activity with respect to each substrate was examined. The values are shown as the relative activity when the activity with respect to soluble starch is defined as 100%. As to oligosaccharides, the production amount of maltose was examined by the below-mentioned quantification amount of maltose. After 0.1 u/ml enzyme was reacted to 0.5% of each maltooligosaccharide at 37° C. for 30 minutes, quantification of maltose was carried out by HPLC (Aminex carbohydrate HPX-42A, BIO-RAD). A production amount of maltose when the substrate is soluble starch is defined as 100%, the relative activity with respect to each maltooligosaccharide was calculated from the production amount of maltose.
The values were shown as the relative activity when a production amount of maltose with respect to soluble starch is defined as 100%.

[3] = β-amylase specific activity at each purification stage; type: biochemical
Procedure: as §1
Bacillus flexus APC9451 was cultured with shaking at 30° C. for three days by using a liquid medium having the compositions shown in Table 1. The obtained culture supernatant solution was four-times concentrated by using an UF membrane (AIP-0013, Asahi Kasei Corporation), and then ammonium sulfate was added thereto so as to obtain 60% saturation concentration. The precipitate fraction was dissolved again in 20 mM acetic acid buffer solution (pH 5.5). Then, to the mixture solution, ammonium sulfate was added so as to obtain 20% saturation concentration. […]

[4] = Optimum reaction temperature of β-amylase; type: biochemical; settings: pH 5.0, reaction temperatures 25 to 70° C.
Procedure: as §1
According to the above-mentioned β-amylase activity measurement method, reaction was carried out at the reaction temperatures of 25° C., 37° C., 50° C., 55° C., 60° C., 65° C., and 70° C. […] The optimum reaction temperature was around 55° C. (FIG. 1).

[5] = Optimum reaction pH of β-amylase; type: biochemical; settings: 1% soluble starch, 37° C., 10 minutes; citric acid buffer pH2-4, Britton-Robinson buffer pH4-11
Procedure: For the substrate, 1% soluble starch was used, and the measurement was carried out in each buffer solution (citric acid buffer: pH2, pH3, and pH4, Britton-Robinson buffer: pH4, pH5, pH6, pH7, pH8, pH9, pH10, and pH11) at 37° C. for 10 minutes. […] The optimum reaction pH was about 8.0 (FIG. 2).

[6] = Thermostability (remaining activity after heat treatment); type: physicochemical
Procedure: as §1
The enzyme solution (20 u/ml) was subjected to heat treatment in 0.1 M acetic acid-hydrochloric acid buffer solution (pH 5.0) containing 10 mM calcium acetate at each temperature of 37° C., 50° C., 55° C., 60° C., 65° C. and 70° C. for 10 minutes, and then the remaining activity was measured by the above-mentioned β-amylase activity measurement method. The values are shown as the remaining activity when the remaining activity with no heat treatment is defined as 100%. […] (FIG. 3).

pH stability = type: physicochemical; settings: pH 4 to 9, 30° C., three hours
Procedure: as §1
β-amylase was treated in each of the buffer solutions (citric acid buffer: pH2, pH3, and pH4, Britton-Robinson buffer: pH4, pH5, pH6, pH7, pH8, pH9, pH10, and pH11) at 30° C. for three house, and then the activity was measured by the above-mentioned β-amylase activity measurement method. […] The […] was 4 to 9 (FIG. 4).

[7] = Isoelectric point by isoelectric point precipitation using Ampholine; type: physicochemical; settings: 600V, 4° C., 48 hours
Procedure: When the isoelectric point of the present enzyme was measured by isoelectric point precipitation using Ampholine (electrification at 600V, at 4° C., for 48 hours), it was 9.7.

| Molecule | Relative activity (β-amylase [1]) [%] | Relative activity (%) (β-amylase [2]) | other results |
| --- | --- | --- | --- |
| [Ca+2] [Ca^2+] | 130 |  |  |
| [Cu+2] [Cu^2+] | 46 |  | effect on activity (β-amylase [1]): inhibited |
| [Fe+2] [Fe^2+] | 105 |  | Relative activity (β-amylase [1]; listed as Fe^3+): 113% |
| [K+] [K^+] | 96 |  |  |
| OC[C@H]1O[C@H](O[C@H]2[C@H](O)[C@@H](O)[C@@H](O[C@H]3[C@H](O)[C@@H](O)[C@@H](O[C@H]4[C@H](O)[C@@H](O)C(O)O[C@@H]4CO)O[C@@H]3CO)O[C@@H]2CO)[C@H](O)[C@@H](O)[C@@H]1O (stereo partly shown) [Maltotetraose] |  | 75 |  |
| [Mg+2] [Mg^2+] | 103 |  |  |
| [Mn+2] [Mn^2+] | 222 |  |  |
| CCN1C(=O)C=CC1=O [N-ethylmaleimide] | 93 |  |  |
| [Na+] [Na^+] | 88 |  |  |
| O=C(O)c1cc[c]([Hg][Cl])cc1 [PCMB] | 25 |  | effect on activity (β-amylase [1]): inhibited |
| CCCCCCCCCCCCOS(=O)(=O)[O-].[Na+] [SDS] | 37 |  | effect on activity (β-amylase [1]): inhibited |
| [Zn+2] [Zn^2+] | 96 |  |  |
| O=C(O)CI [monoiodoacetic acid] | 14 |  | effect on activity (β-amylase [1]): inhibited |
| OC[C@H]1O[C@@H]2O[C@H]3[C@H](O)[C@@H](O)[C@@H](O[C@H]4[C@H](O)[C@@H](O)[C@@H](O[C@H]5[C@H](O)[C@@H](O)[C@@H](O[C@H]6[C@H](O)[C@@H](O)[C@@H](O[C@H]7[C@H](O)[C@@H](O)[C@@H](O[C@H]1[C@H](O)[C@H]2O)O[C@@H]7CO)O[C@@H]6CO)O[C@@H]5CO)O[C@@H]4CO)O[C@@H]3CO [α-cyclodextrin] |  | 0 |  |
| OC[C@H]1O[C@@H]2O[C@H]3[C@H](O)[C@@H](O)[C@@H](O[C@H]4[C@H](O)[C@@H](O)[C@@H](O[C@H]5[C@H](O)[C@@H](O)[C@@H](O[C@H]6[C@H](O)[C@@H](O)[C@@H](O[C@H]7[C@H](O)[C@@H](O)[C@@H](O[C@H]8[C@H](O)[C@@H](O)[C@@H](O[C@H]1[C@H](O)[C@H]2O)O[C@@H]8CO)O[C@@H]7CO)O[C@@H]6CO)O[C@@H]5CO)O[C@@H]4CO)O[C@@H]3CO [β-cyclodextrin] |  | 1.4 |  |
| OC[C@H]1O[C@@H]2O[C@H]3[C@H](O)[C@@H](O)[C@@H](O[C@H]4[C@H](O)[C@@H](O)[C@@H](O[C@H]5[C@H](O)[C@@H](O)[C@@H](O[C@H]6[C@H](O)[C@@H](O)[C@@H](O[C@H]7[C@H](O)[C@@H](O)[C@@H](O[C@H]8[C@H](O)[C@@H](O)[C@@H](O[C@H]9[C@H](O)[C@@H](O)[C@@H](O[C@H]1[C@H](O)[C@H]2O)O[C@@H]9CO)O[C@@H]8CO)O[C@@H]7CO)O[C@@H]6CO)O[C@@H]5CO)O[C@@H]4CO)O[C@@H]3CO [γ-cyclodextrin-, γ-cyclodextrin] |  | 0.6 |  |
| Maltoheptaose |  | 111 |  |
| Maltohexaose |  | 131 |  |
| Maltopentaose |  | 102 |  |
| Maltotriose |  | 0 | substrate specificity (words) (β-amylase [2]): did not act; also recorded: does not substantially act |
| cyclodextrin |  |  | substrate specificity (words) (β-amylase [2]): does not substantially act; substrate specificity (words) (β-amylase [2]; listed as Cyclodextrin): almost broken down |
| B1 |  |  | specific activity in the final stage as compared with that of the crude enzyme ([3]; final purification stage vs crude enzyme): 2270 times; Specific activity ([3]; purification stage of β-amylase from Bacillus flexus APC9451): 1569 u/mg; optimum reaction temperature [4]: around 55 °C; optimum reaction temperature ([4]; listed as the present enzyme): about 55 °C; optimum reaction pH [5]: about 8.0; remaining activity after heat treatment ([6]; 55° C., 10 minutes, 0.1 M acetic acid-hydrochloric acid buffer pH 5.0, 10 mM calcium acetate, no heat treatment = 100%): ≥ 90%; thermostability (temperature until which stable) ([6]; pH 5.0, 10 minutes): ≤ 55 °C; activity with respect to the maximum activity after treatment (pH stability): ≥ 70%; isoelectric point [7]: 9.7 |
